Values after ≈ are worked out from the molar mass of the structure shown.
What was measured:
Type in all cases: cell-based
[1] = tested on: Escherichia coli IFO 12734; test: In vitro antibacterial activity, agar plate dilution method (MIC); conditions: for MIC: IFO12734, read-out: Antibacterial spectrum MIC
Experimental: (§1) The in vitro antibacterial activity of the present compound (Example 2, 4, 6, 8, 10, 12, 14, 16 and 18) was tested by the standard method of Japan Chemical Therapy Institute using agar plate dilution method which is described in CHEMOTHERAPY Vol.29, […], 1981. For an anaerobic bacteria, it was tested by the method described in CHEMOTHERAPY Vol. 27, 559-590, 1979. The minimum concentration at which the growth of a bacteria could be inhibited by the present compound was decided as MIC (μg/ml).

[2] = tested on: Pseudomonas aeruginosa CSJ 1853; test: as above; conditions: for MIC: CSJ1853, read-out: Antibacterial spectrum MIC
Experimental: as §1

[3] = tested on: Streptococcus Pneumoniae IID553; test: as above; conditions: for MIC: read-out: Antibacterial spectrum MIC
Experimental: as §1

[4] = tested on: Streptococcus aureus Clin-211; test: as above; conditions: for MIC: CLIN211, read-out: Antibacterial spectrum MIC
Experimental: as §1

[5] = tested on: Streptococcus aureus JCM2874; test: as above; conditions: for MIC: read-out: Antibacterial spectrum MIC
Experimental: as §1

[6] = tested on: Bacteroides fragilis GAI0675; test: In vitro antibacterial activity against anaerobic bacteria (MIC); conditions: Bacteroides fragilis GAI0675 (Table 2: Bacteroides GMI0675), anaerobic bacteria method; for MIC: read-out: Antibacterial spectrum MIC
Experimental: as §1

MIC [1] [µg/mL] | MIC [2] [µg/mL] | MIC [3] [µg/mL] | MIC [4] [µg/mL] | MIC [5] [µg/mL] | MIC [6] [µg/mL] | Antibacterial spectrum MIC [1] [µg/mL] | Antibacterial spectrum MIC [2] [µg/mL] | Antibacterial spectrum MIC [3] [µg/mL] | Antibacterial spectrum MIC [4] [µg/mL] | Antibacterial spectrum MIC [5] [µg/mL] | Antibacterial spectrum MIC [6] [µg/mL] | SMILES
– | – | – | – | – | – | 0.125 | 4 | 0.25 | 1 | 0.031 | 0.25 | O=C(O)c1cc(C2CC2)c2c(OC(F)F)c(-c3ccc4c(c3)CNC4)ccn2c1=O [Example 12, 1-cyclopropyl-9-difloromethoxy-8-(isoindoline-5-yl)-4-oxo-4H-quinolizine-3-carboxylic acid]
0.031 (≈ 0.0819 µM) | 0.5 (≈ 1.32 µM) | 0.031 (≈ 0.0819 µM) | 0.125 (≈ 0.33 µM) | 0.008 (≈ 0.0211 µM) | 0.016 (≈ 0.0423 µM) | – | – | – | – | – | – | Cc1c(-c2cc(F)c3c(c2)CNC3)ccn2c(=O)c(C(=O)O)cc(C3CC3)c12 [Example 14, 1-cyclopropyl-8-(4-fluoroisoindoline-6-yl)-9-methyl-4-oxo-4H-quinolizine-3-carboxylic acid]
0.5 (≈ 1.23 µM) | 8 (≈ 19.7 µM) | 0.5 (≈ 1.23 µM) | 2 (≈ 4.92 µM) | 0.125 (≈ 0.308 µM) | 0.25 (≈ 0.615 µM) | – | – | – | – | – | – | COc1cc(-c2ccn3c(=O)c(C(=O)O)cc(C4CC4)c3c2OC)cc2c1CNC2 [Example 16, 1-cyclopropyl-9-methoxy-8-(4-methoxyisoindoline-6-yl)-4-oxo-4H-quinolizine-3-carboxylic acid]
0.125 (≈ 0.32 µM) | 2 (≈ 5.12 µM) | 0.125 (≈ 0.32 µM) | 0.5 (≈ 1.28 µM) | 0.031 (≈ 0.0794 µM) | 0.063 (≈ 0.161 µM) | – | – | – | – | – | – | COc1cc(-c2ccn3c(=O)c(C(=O)O)cc(C4CC4)c3c2C)cc2c1CNC2 [Example 18, 1-cyclopropyl-9-methyl-8-(4-methoxy-isoindoline-6-yl)-4-oxo-4H-quinolizine-3-carboxylic acid]
0.063 (≈ 0.174 µM) | 0.5 (≈ 1.38 µM) | 1 (≈ 2.77 µM) | 4 (≈ 11.1 µM) | 0.25 (≈ 0.692 µM) | 0.5 (≈ 1.38 µM) | – | – | – | – | – | – | C[C@H]1COc2c(N3CCN(C)CC3)c(F)cc3c(=O)c(C(=O)O)cn1c23 [LVFX, levofloxacin, reference compound]

Further lines, the molecule ahead of its results:

SMILES | MIC [1] [µg/mL] | MIC [2] [µg/mL] | MIC [3] [µg/mL] | MIC [4] [µg/mL] | MIC [5] [µg/mL] | MIC [6] [µg/mL] | Antibacterial spectrum MIC [1] [µg/mL] | Antibacterial spectrum MIC [2] [µg/mL] | Antibacterial spectrum MIC [3] [µg/mL] | Antibacterial spectrum MIC [4] [µg/mL] | Antibacterial spectrum MIC [5] [µg/mL] | Antibacterial spectrum MIC [6] [µg/mL]
Cc1c(-c2ccc3c(c2)CNC3C)ccn2c(=O)c(C(=O)O)cc(C3CC3)c12 (stereo not drawn) [Example 2, 1-cyclopropyl-9-methyl-8-(1-methylisoindoline-5-yl)-4-oxo-4H-quinolizine-3-carboxylic acid] | 0.031 (≈ 0.0828 µM) | 0.25 (≈ 0.668 µM) | 0.063 (≈ 0.168 µM) | 0.25 (≈ 0.668 µM) | 0.008 (≈ 0.0214 µM) | 0.031 (≈ 0.0828 µM) | – | – | – | – | – | –
COc1c(-c2ccc3c(c2)CNC3C)ccn2c(=O)c(C(=O)O)cc(C3CC3)c12 (stereo not drawn) [Example 4, 1-cyclopropyl-9-methoxy-8-(1-methylisoindoline-5-yl)-4-oxo-4H-quinolizine-3-carboxylic acid] | 0.125 (≈ 0.32 µM) | 1 (≈ 2.56 µM) | 0.25 (≈ 0.64 µM) | 1 (≈ 2.56 µM) | 0.063 (≈ 0.161 µM) | 0.25 (≈ 0.64 µM) | – | – | – | – | – | –
Cc1c(-c2ccc3c(c2)CNC3)ccn2c(=O)c(C(=O)O)cc(C3CC3)c12 [Example 6, 1-cyclopropyl-9-methyl-8-(isoindoline-5-yl)-4-oxo-4H-quinolizine-3-carboxylic acid] | 0.016 (≈ 0.0444 µM) | 0.25 (≈ 0.694 µM) | 0.031 (≈ 0.086 µM) | 0.125 (≈ 0.347 µM) | 0.008 (≈ 0.0222 µM) | 0.031 (≈ 0.086 µM) | – | – | – | – | – | –
COc1c(-c2ccc3c(c2)CNC3)ccn2c(=O)c(C(=O)O)cc(C3CC3)c12 [Example 8, 1-cyclopropyl-9-methoxy-8-(isoindoline-5-yl)-4-oxo-4H-quinolizine-3-carboxylic acid] | 0.063 (≈ 0.167 µM) | 1 (≈ 2.66 µM) | 0.25 (≈ 0.664 µM) | 0.5 (≈ 1.33 µM) | 0.063 (≈ 0.167 µM) | 0.25 (≈ 0.664 µM) | – | – | – | – | – | –
CC1NCc2cc(-c3ccn4c(=O)c(C(=O)O)cc(C5CC5)c4c3OC(F)F)ccc21 (stereo not drawn) [Example 10, 1-cyclopropyl-9-difluoromethoxy-8-((+)-1-methylisoindoline-5-yl)-4-oxo-4H-quinolizine-3-carboxylic acid] | 0.125 (≈ 0.293 µM) | 4 (≈ 9.38 µM) | 0.25 (≈ 0.586 µM) | 1 (≈ 2.35 µM) | 0.063 (≈ 0.148 µM) | 0.5 (≈ 1.17 µM) | – | – | – | – | – | –
